Assay [1] deals with ATMs in perigonadal adipose tissue. The experiment in a line: CL316,243 treatment of lean mice: ATM content in perigonadal adipose tissue. The class given is in vivo, C57BL/6J mice. The procedure:
Ten 8-week-old C57BL/6J mice fed the standard pellet diet (see above) were injected intraperitoneally with 1 mg/kg of CL316,243 or saline twice (4 hours between each injection). Mice were sacrificed 14 hours after the second injection. Perigonadal adipose tissue was excised and samples were stored as described above.
Adipose tissue samples were fixed for 48 hours at room temperature in zinc-formalin fixative (Anatech Ltd.), incubated in 70% ethanol for 24 hours, and subsequently embedded in paraffin. […] For each individual adipose tissue depot, 5-10 different high-power fields from each of 3 different sections were analyzed. The total number of nuclei and the number of nuclei of F4/80-expressing cells were counted for each field. The fraction of F4/80-expressing cells for each sample was calculated as the sum of the number of nuclei of F4/80-expressing cells divided by the total number of nuclei in sections of a sample. Cross-sectional area was determined for each adipocyte in each field using image analysis software Image-Pro Plus (Media Cybernetics Inc.). For each mouse, 800-1000 adipocytes were counted. Adipocyte number was calculated from fat pad weight and adipocyte volume (48). […] For each individual adipose tissue depot, 10 different high-power fields from each of 3 different sections were analyzed. […]

For assay [2], the system named is perigonadal adipose tissue explants. The experiment in a line: Lipolysis (FFA release) of perigonadal adipose tissue explants with isoproterenol. The class given is cell-based, C57BL/6J mice. Details: dose or concentration left out as unconfirmed. The settings on record: explants from lean ad libitum-fed mice. The procedure:
Perigonadal fat pads were surgically removed from high-fat-fed C57BL/6J mice (n=5/group), which were either ad libitum fed or were undergoing caloric restriction. Subsequently, they were washed several times with PBS. Tissue pieces (−100 mg total weight) were incubated in DMEM (Invitrogen) containing 2% fatty acid-free BSA (Sigma-Aldrich) at 37° C. Aliquots were collected after 120 minutes and investigated for FFA and glycerol content. FFA and glycerol were measured using the HR NEFA series (Wako Diagnostics) and the free glycerol determination kit (Sigma-Aldrich), respectively. We measured adipocyte numbers in parallel samples from weight- and fat-matched ad libitum-fed and calorically restricted mice.
(§1) Explant-conditioned media, plain media, or media containing recombinant MCP-1 (50 ng/ml) (PeproTech) were added into the lower chamber. To obtain explant-conditioned media, explants were isolated from lean 10-week-old C57BL/6J mice that were ad libitum fed or fasted for 24 hours. […] Explant FFA content was evaluated using the HR NEFA series (Wako Diagnostics). […] At the end of the incubation, cells were detected by a green fluorescent dye (CyQUANT dye) included in the assay. Fluorescence intensity was measured with the Infinite 500 (Tecan). Cell numbers were determined based on fluorescence readings and a standard curve.

In assay [3] the test system is bone marrow-derived macrophages (BMDMs). The experiment in a line: Macrophage migration assay with explant-conditioned media. The class given is cell-based, C57BL/6J mice. As to conditions: explant-conditioned medium, isoproterenol-treated explants; comparable to MCP-1/CCL2 (50 ng/ml).
Source text: Murine BMDMs were differentiated in vitro from bone marrow precursor cells. Briefly, bone marrow cells were flushed from femurs and tibias of 9-week-old C57BL/6J mice, washed in DMEM (Invitrogen), and grown for 7 days in Petri dishes containing DMEM with 10% FBS, 20% L929 cell-conditioned media, 5% horse serum, 1% glutamine, and 1% sodium pyruvate. On the seventh day, media were replaced with DMEM containing 10% FBS, 10% L929 cell-conditioned media, 5% horse serum, 1% glutamine, and 1% sodium pyruvate; macrophages were grown for 3 more days. Differentiation was confirmed by FACS analysis. BMDM migration was evaluated using the QCM chemotaxis […] 96-well cell migration assay (Millipore) according to the manufacturer's instructions.
as §1

Assay [4] deals with stromal vascular cells (SVCs). The experiment in a line: Co-culture of SVCs with adipose tissue with or without isoproterenol. The class given is cell-based, C57BL/6J mice.
Procedure: RNA was isolated from SVCs using the QIAGEN RNeasy Minikit (QIAGEN) and used as template for cDNA synthesis using Superscript III reverse transcriptase (Invitrogen) and random hexamer primers. Quantitative RT-PCR assays were carried out using DNA Engine Opticon 2 system instruments (Bio-Rad) and PCR SYBR Green I QuantiTect Master Mix (QIAGEN). The mRNA expression of all genes reported is normalized to the cyclophilin B (Ppib) gene expression. Every reaction was performed in duplicate, and the data were analyzed with the 2-DDCT method (49). To isolate SVCs, perigonadal adipose tissue was isolated from high-fat diet-induced obese C57BL/6J male mice immediately after CO2 asphyxiation. Tissues were handled using sterile techniques and minced into fine (<10 mg) pieces. For SVC isolation, minced samples were placed in DMEM (Invitrogen) supplemented with 10 mg/ml BSA (Sigma-Aldrich). An LPS-depleted collagenase cocktail (Liberase 3; Roche Applied Science) at a concentration of 0.03 mg/ml was added to the tissue suspension, and the samples were incubated at 37° C. on an orbital shaker (200 g) for 45 minutes. Once digestion was complete, samples were passed through a sterile 250-mm nylon mesh (Sefar America Inc.). The suspension was centrifuged at 500 g for 5 minutes. The pelleted cells were collected as SVCS. The SVCS were resuspended in erythrocyte lysis buffer (BD Biosciences) and incubated at room temperature for 1 minute. SVCS were plated at a concentration of 650,000 cells/well on cell culture inserts with 1-mm pore size (BD). Each insert was placed in a well of a 12-well tissue culture plate (BD) containing 100 mg of finely minced adipose tissue. To isolate small intact pieces of adipose tissue for culture, perigonadal adipose tissue was remove from high-fat-fed obese C57BL/6J mice and minced to approximately 10-mg size pieces. SVCS were cocultured with adipose tissue pieces for 24 hours in DMEM containing 10% FBS, 1% penicillin, and 2% fatty acid-free BSA. Isoproterenol (Sigma-Aldrich) was added in selected wells at a concentration of 10 mmoles/1. The stromal vascular fraction was collected for gene expression or oil red 0 staining after 24 hours. SVCS were air-dried and fixed with zinc-formalin fixative (see above) for 10 minutes and stained oil red O as previously described (50).

As for `C[C@H](Cc1ccc2c(c1)OC(C(=O)[O-])(C(=O)[O-])O2)NC[C@H](O)c1cccc(Cl)c1.[Na+].[Na+]` [CL316,243], the “increase of ATM content in perigonadal adipose tissue” value in assay [1] (lean C57BL/6J mice, 1 mg/kg intraperitoneally twice 4 hours apart, tissue 14 hours after final injection, vs control-treated mice) was “more than 5 fold”. Besides, the “inflammatory phenotype of adipose tissue (expression of inflammatory markers)” value in assay [1] (lean mice, CL316,243 vs vehicle, perigonadal adipose tissue) is on record as “do not increase the inflammatory phenotype of adipose tissue”.
As to `CC(C)NCC(O)c1ccc(O)c(O)c1` (stereo not shown) [isoproterenol], the “lipolysis as release of FFA from explants” value in assay [2] is reported as “increased lipolysis”. In assay [3], the “chemotactic activity of adipose tissue toward BMDMs” value is given as “proportional increase in the chemotactic activity”. Further, the “SVC gene expression or lipid accumulation” value in assay [4] (SVCs cultured in the absence of adipose tissue, 24 hours) was “no effect”. Also, in assay [4] (coculture with adipose tissue plus isoproterenol), the “lipid accumulation within SVCs (oil red O)” value is listed as “accumulation of lipid within SVCS”. Further, the “Ccr2 gene expression in the SVC fraction” value in assay [4] (coculture with adipose tissue plus isoproterenol stimulation) is reported as “induced Ccr2 gene expression”. In assay [4] (in the presence of adipose tissue), the “program of adipocyte differentiation in SVCs (adiponectin, leptin, Pparg expression)” value is on record as “no activation of a program of adipocyte differentiation”. Besides, the “Adfp gene expression in SVCs” value in assay [4] (in the presence of adipose tissue, 24 hours) is “induced the expression of the gene Adfp”. The “Cd36 expression in SVCs” value in assay [4] (in the presence of adipose tissue, P=0.09) was “increased”.

Source of the values: US20130315981A1, “METHOD FOR INDUCING FAT LOSS IN MAMMALS” (The Trustees of Columbia University in the City of New York, priority 2010, published 2013).
